According to patent publication US5445942A, “Amplification assay for hydrolase enzymes” (London Biotechnology Limited, priority 1988, dated 1995):

Experiments:
D-amino acid oxidase = D-amino acid oxidase (Sus scrofa, UniProt P00371); details: same concentration as D-alanine (35 mM), pH 8.0
Excerpt: Use of apo-D-amino acid oxidase, whose holoenzyme has a pH optimum of 8.0-9.0, allows the above assay to be conducted in a single pot:
The above ingredients may be mixed beforehand and added directly too the alkaline phosphatase.

apoglucose oxidase = target: T1, apoglucose oxidase (Aspergillus niger, UniProt P13006); experiment: Binding of FAD / FADP by apoglucose oxidase (removal of FAD traces from FADP)
T1 construct: made in house
Procedure: Apoglucose oxidase (2.5 μM) was mixed with FADP (200 μM) at room temperature. After 30 min the mixture was ultrafiltered to yield a sample of FADP containing less than 0.002% FAD.

apoenzyme = experiment: Prosthetic-group activity of FADP and its interference with holoenzyme formation from apoenzyme and FAD; assay type: biochemical; details: shelf-stable apoenzymes
Excerpt: In a preferred embodiment, the prosthetogen is an FAD-phosphate (FADP) and the hydrolase is a phosphatase. This procedure has the great advantage that the prosthetic group, FAD, is formed directly by action of a phosphatase enzyme on the prosthetogen, FADP, without the necessity to add any ancillary converting enzymes.
Suitable apoenzymes include apo-D-aminoacid oxidase and apoglucose oxidase as mentioned above, as well as apo-L-aminoacid oxidase, apoxanthine oxidase and other apoenzymes which will be apparent to those skilled in the art. Apo-D-aminoacid oxidase is a preferred apoenzyme for many applications since it is very shelf-stable, and has kinetic characteristics that permits the technology to be used in a `single pot` format, with all components added as a single promix to analyte-linked alkaline phosphatase. Suitable substrates for it are D-alanine, D-methionine and D-proline. For maximising the sensitivity of the invention without incorporating tail-end cycling components (see below), the use of apoglucose oxidase is advantageous, although its use requires a two stage format in which the first stage, involving hydrolysis of FADP, is operated at pH 8.0 and the second detection stage at a lower pH.

alkaline phosphatase = experiment: Hydrolysis of FADP by alkaline phosphatase, product checked by anion exchange elution and apoglucose oxidase reconstitution; assay type: biochemical; details: 10 mM Tris buffer pH 8.0, 1 mM MgCl2, 0.1 mM ZnCl2
Excerpt: Crude 2'(3')-FADP was isolated by FPLC on a Mono Q HR 10/10 anion exchange column (Pharmacia) with a H2 O/1M ammonium formate (pH 6.5) gradient. The fractions eluting with 0.65-0.8M ammonium formate were pooled and freeze-dried. […] Traces of FAD could be removed by treatment with a suitable apoenzyme followed by ultrafiltration to remove the macromolecules.

T1 sequence (P13006 17-605): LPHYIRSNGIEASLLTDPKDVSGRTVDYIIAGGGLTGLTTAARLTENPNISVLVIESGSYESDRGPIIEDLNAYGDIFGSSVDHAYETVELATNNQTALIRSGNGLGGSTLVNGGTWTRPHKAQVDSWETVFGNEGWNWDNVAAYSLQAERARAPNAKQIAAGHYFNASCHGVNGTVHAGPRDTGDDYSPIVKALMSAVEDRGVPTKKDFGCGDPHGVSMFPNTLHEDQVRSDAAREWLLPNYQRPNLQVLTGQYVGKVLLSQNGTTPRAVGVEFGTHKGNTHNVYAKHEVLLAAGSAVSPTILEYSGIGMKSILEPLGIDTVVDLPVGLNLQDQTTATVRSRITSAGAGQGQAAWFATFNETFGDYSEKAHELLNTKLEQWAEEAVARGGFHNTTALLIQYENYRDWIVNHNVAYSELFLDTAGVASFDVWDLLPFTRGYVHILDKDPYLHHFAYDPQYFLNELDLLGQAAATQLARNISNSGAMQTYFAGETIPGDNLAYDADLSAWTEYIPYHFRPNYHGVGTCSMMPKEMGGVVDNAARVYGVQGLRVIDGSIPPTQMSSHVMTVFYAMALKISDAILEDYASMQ
Chain of D-amino acid oxidase (P00371 whole entry): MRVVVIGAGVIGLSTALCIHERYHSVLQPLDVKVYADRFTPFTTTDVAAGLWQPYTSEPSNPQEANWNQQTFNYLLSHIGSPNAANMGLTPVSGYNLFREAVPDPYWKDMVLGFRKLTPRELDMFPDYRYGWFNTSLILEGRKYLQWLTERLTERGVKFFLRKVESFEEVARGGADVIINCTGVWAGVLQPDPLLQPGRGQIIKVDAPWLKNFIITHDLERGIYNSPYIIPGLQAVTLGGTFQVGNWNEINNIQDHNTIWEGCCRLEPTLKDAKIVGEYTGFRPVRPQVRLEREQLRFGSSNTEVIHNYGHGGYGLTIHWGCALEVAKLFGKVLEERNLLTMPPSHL

Molecule | rate of oxidation relative to D-alanine (D-amino acid oxidase) | binding by apoglucose oxidase (apoglucose oxidase) | activity per se as a prosthetic group (apoenzyme) | interference with formation of the holoenzyme from apoenzyme and FAD (apoenzyme) | hydrolysis by alkaline phosphatase (alkaline phosphatase)
CSCC[C@@H](N)C(=O)O [D-methionine] | 2.5 |  |  |  | 
O=C(O)[C@H]1CCCN1 [D-proline] | 3.0 |  |  |  | 
Cc1cc2nc3c(=O)[nH]c(=O)nc-3n(C[C@H](O)[C@H](O)[C@H](O)COP(=O)(O)OP(=O)(O)OC[C@H]3O[C@@H](n4cnc5c(N)ncnc54)[C@H](O)[C@@H]3O)c2cc1C [FAD, flavin adenine dinucleotide, reference compound] |  | binds FAD tightly |  |  | 
FAD-2' (3')-Phosphate [FADP] |  | does not bind FADP | no significant activity per se as a prosthetic group | does not significantly interfere with the formation of the holoenzyme | acted upon by alkaline phosphatase to give a product that eluted in the same place as FAD and was able to reconstitute apoglucose oxidase
